Measured values: patent US8802673B2, “Heterocyclic amine derivatives” (Hoffmann-La Roche Inc, priority 2011, dated 2014)

Legend:
[1] = biological target: mouse TAAR1 (Mus musculus (Mouse), UniProt Q923Y8); assay: Radioligand binding assay on mouse TAAR1; settings: for Ki: mouse TAAR1 (first value of the cell), HEK-293 membranes, read-out: Ki (μM) mouse/rat
Procedure, shortened: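 Membranes from HEK293 cells stably expressing mouse TAAR1, Kd of radioligand determined per batch by saturation. Compounds tested 10 pM to 10 μM in duplicate, incubated 1 h at 4 °C, then filtration over PEI-soaked GF/C filters and scintillation counting.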

[2] = biological target: rat TAAR1 (Rattus norvegicus (Rat), UniProt Q923Y9); assay: Radioligand binding assay on rat TAAR1; settings: for Ki: rat TAAR1 (second value of the cell), HEK-293 membranes, read-out: Ki (μM) mouse/rat
Procedure, shortened: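 Membranes from HEK293 cells stably expressing rat TAAR1 were used, with radioligand Kd determined by saturation for each batch. Compounds (10 pM to 10 μM, in duplicate) were incubated for 1 h at 4 °C. Bound radioactivity was collected by filtration onto PEI-soaked GF/C filters and counted by scintillation.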

Sequence of mouse TAAR1 (Q923Y8 whole entry): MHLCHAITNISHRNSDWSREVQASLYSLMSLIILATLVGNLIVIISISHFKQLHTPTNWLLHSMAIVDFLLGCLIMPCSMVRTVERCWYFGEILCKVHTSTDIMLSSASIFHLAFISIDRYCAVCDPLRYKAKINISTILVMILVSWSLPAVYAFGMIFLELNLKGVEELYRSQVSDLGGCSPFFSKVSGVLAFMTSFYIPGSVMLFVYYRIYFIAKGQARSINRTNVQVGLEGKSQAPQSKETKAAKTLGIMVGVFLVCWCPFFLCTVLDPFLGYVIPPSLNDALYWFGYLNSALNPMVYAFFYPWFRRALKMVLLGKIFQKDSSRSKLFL
Sequence of rat TAAR1 (Q923Y9 whole entry): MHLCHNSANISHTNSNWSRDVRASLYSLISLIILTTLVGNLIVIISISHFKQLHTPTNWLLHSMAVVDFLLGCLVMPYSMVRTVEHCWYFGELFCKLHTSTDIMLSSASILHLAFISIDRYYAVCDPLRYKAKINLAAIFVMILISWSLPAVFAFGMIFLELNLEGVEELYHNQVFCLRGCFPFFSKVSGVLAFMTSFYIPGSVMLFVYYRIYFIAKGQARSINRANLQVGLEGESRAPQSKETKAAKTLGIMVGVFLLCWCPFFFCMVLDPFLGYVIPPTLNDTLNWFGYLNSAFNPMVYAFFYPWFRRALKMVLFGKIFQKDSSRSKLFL

Row | Structure (SMILES) | Ki [1] [µM] | Ki [2] [µM] | Kd ([1]; mouse TAAR1 membranes, saturation curve, usual value, read-out: dissociation constant (Kd) of the radioligand) [nM] | Kd ([2]; rat TAAR1 membranes, saturation curve, usual value, read-out: dissociation constant (Kd) of the radioligand) [nM]
1 | Clc1ccc2nc(Nc3ccc([C@H]4CNCCO4)cc3)sc2c1 [Example 26, (6-Chloro-benzothiazol-2-yl)-((S)-4-morpholin-2-yl-phenyl)-amine] | 0.002 | 0.0083 |  | 
2 | Clc1ccc(Nc2ccc(C3CNCCO3)cc2)nc1 (racemic) [Example 5, (RS)-(5-Chloro-pyridin-2-yl)-(4-morpholin-2-yl-phenyl)-amine] | 0.0011 | 0.029 |  | 
3 | Brc1ccc(CNc2ccc([C@H]3CNCCO3)cc2)nc1 [Example 27, (5-Bromo-pyridin-2-ylmethyl)-((S)-4-morpholin-2-yl-phenyl)-amine] | 0.0438 | 0.808 |  | 
4 | Fc1cc(Nc2ncc(C3CC3)cn2)ccc1[C@@H]1CNCCO1 [Example 192, (R)-5-Cyclopropyl-N-(3-fluoro-4-(morpholin-2-yl)phenyl)pyrimidin-2-amine] | 0.0025 | 0.0026 |  | 
5 | FC(F)(F)c1ccnc(Nc2ccc([C@H]3CNCCO3)cc2)c1 [Example 42, (S)—N-(4-(Morpholin-2-yl)phenyl)-4-(trifluoromethyl)pyridin-2-amine] | 0.0023 | 0.0518 |  | 
6 | CCOc1cc(Nc2ccc([C@H]3CNCCO3)cc2)cnc1Cl [Example 71, (S)-6-Chloro-5-ethoxy-N-(4-(morpholin-2-yl)phenyl)pyridin-3-amine] | 0.0118 | 0.168 |  | 
7 | Clc1cc(Nc2ccc([C@H]3CNCCO3)cc2)nc2ccccc12 [Example 54, (S)-4-Chloro-N-(4-(morpholin-2-yl)phenyl)quinolin-2-amine] | 0.0008 | 0.0138 |  | 
8 | c1cc([C@H]2CNCCO2)ccc1Nc1ccc2c(c1)OCO2 [Example 65, (S)—N-(4-(Morpholin-2-yl)phenyl)benzo[d][1,3]dioxol-5-amine] | 0.0131 | 0.629 |  | 
9 | FC(F)(F)c1cc(Nc2ccc([C@@H]3CNCCO3)cc2)ncn1 [Example 198, (R)—N-(4-(Morpholin-2-yl)phenyl)-6-(trifluoromethyl)pyrimidin-4-amine] | 0.0419 | 0.163 |  | 
10 | Clc1ccc(CNc2ccc([C@H]3CNCCO3)cc2)cc1Cl [Example 30, (3,4-Dichloro-benzyl)-((S)-4-morpholin-2-yl-phenyl)-amine] | 0.0051 | 0.0417 |  | 
11 | COc1ccnc(Nc2ccc([C@H]3CNCCO3)cc2)c1 [Example 39, (S)-4-Methoxy-N-(4-(morpholin-2-yl)phenyl)pyridin-2-amine] | 0.004 | 0.251 |  | 
12 | Fc1cc(Nc2ncc(Cl)cn2)ccc1[C@@H]1CNCCO1 [Example 210, (R)-5-Chloro-N-(3-fluoro-4-(morpholin-2-yl)phenyl)pyrimidin-2-amine] | 0.0047 | 0.0266 |  | 
13 | Cc1cc(C2CNCCO2)ccc1Nc1ccc(Cl)cn1 (racemic) [Example 80, (RS)-(5-Chloro-pyridin-2-yl)-(2-methyl-4-morpholin-2-yl-phenyl)-amine] | 0.0026 | 0.0626 |  | 
14 | Fc1ccc(CNc2ccc([C@H]3CNCCO3)cc2)cc1 [Example 31, (4-Fluoro-benzyl)-((S)-4-morpholin-2-yl-phenyl)-amine] | 0.0452 | 0.222 |  | 

Results, then the compound that gave them:

Row | Ki [1] [µM] | Ki [2] [µM] | Kd ([1]; mouse TAAR1 membranes, saturation curve, usual value, read-out: dissociation constant (Kd) of the radioligand) [nM] | Kd ([2]; rat TAAR1 membranes, saturation curve, usual value, read-out: dissociation constant (Kd) of the radioligand) [nM] | Structure (SMILES)
15 | 0.0042 | 0.0011 |  |  | FC(F)(F)COc1ccnc(Nc2ccc([C@@H]3CNCCO3)c(Cl)c2)n1 [Example 211, ((R)-3-Chloro-4-morpholin-2-yl-phenyl)-[4-(2,2,2-trifluoro-ethoxy)-pyrimidin-2-yl]-amine]
16 | 0.007 | 0.84 |  |  | FC(F)(F)c1ncc(Nc2ccc([C@H]3CNCCO3)cc2)cn1 [Example 153, ((S)-4-Morpholin-2-yl-phenyl)-(2-trifluoromethyl-pyrimidin-5-yl)-amine]
17 |  |  | ~0.7 | ~2.3 | CCN(C[C@H]1COC(N)=N1)c1ccccc1 [^3[H]-(S)-4-[(ethyl-phenylamino)-methyl]-4,5-dihydro-oxazol-2-ylamine, reference compound]
18 | 0.0045 | 0.0278 |  |  | c1cc([C@@H]2CNCCO2)ccc1Nc1ncc(OCC2CC2)cn1 [Example 125, (R)-5-(Cyclopropylmethoxy)-N-(4-(morpholin-2-yl)phenyl)pyrimidin-2-amine]
19 | 0.0096 | 0.863 |  |  | FC(F)(F)c1ncc(Nc2ccc([C@@H]3CNCCO3)cc2)cn1 [Example 154, ((R)-4-Morpholin-2-yl-phenyl)-(2-trifluoromethyl-pyrimidin-5-yl)-amine]
20 | 0.0134 | 0.149 |  |  | FC(F)Cn1ccc(Nc2ccc(C3CNCCO3)cc2)n1 (racemic) [Example 150, (RS)-[1-(2,2-Difluoro-ethyl)-1H-pyrazol-3-yl]-(4-morpholin-2-yl-phenyl)-amine]
21 | 0.0243 | 0.0397 |  |  | FC(F)(F)c1cnc(Nc2ccc([C@H]3CNCCO3)cc2Cl)nc1 [Example 169, ((S)-2-Chloro-4-morpholin-2-yl-phenyl)-(5-trifluoromethyl-pyrimidin-2-yl)-amine]
22 | 0.0058 | 0.0096 |  |  | Fc1cc(C2CNCCO2)ccc1Nc1ncc(C(F)(F)F)cn1 (racemic) [Example 121, (RS)-(2-Fluoro-4-morpholin-2-yl-phenyl)-(5-trifluoromethyl-pyrimidin-2-yl)-amine]
23 | 0.0051 | 0.0199 |  |  | Fc1cc([C@@H]2CNCCO2)ccc1Nc1ncc(Cl)cn1 [Example 130, (5-Chloro-pyrimidin-2-yl)-((R)-2-fluoro-4-morpholin-2-yl-phenyl)-amine]
24 | 0.0032 | 0.0025 |  |  | Fc1cc(Nc2ncc(F)c(OCC(F)(F)F)n2)ccc1[C@@H]1CNCCO1 [Example 209, (R)-5-Fluoro-N-(3-fluoro-4-(morpholin-2-yl)phenyl)-4-(2,2,2-trifluoroethoxy)pyrimidin-2-amine]
25 | 0.0162 | 0.203 |  |  | Cc1cc(C2CNCCO2)ccc1Nc1ncc(Cl)cn1 (racemic) [Example 81, (RS)-(5-Chloro-pyrimidin-2-yl)-(2-methyl-4-morpholin-2-yl-phenyl)-amine]
26 | 0.0021 | 0.01 |  |  | FC(F)(F)COc1ccnc(Nc2ccc([C@H]3CNCCO3)cc2)n1 [Example 187, ((S)-4-Morpholin-2-yl-phenyl)-[4-(2,2,2-trifluoro-ethoxy)-pyrimidin-2-yl]-amine]
27 | 0.0052 | 0.0387 |  |  | CCOc1cnc(Nc2ccc([C@H]3CNCCO3)cc2F)nc1 [Example 133, (5-Ethoxy-pyrimidin-2-yl)-((S)-2-fluoro-4-morpholin-2-yl-phenyl)-amine]
28 | 0.0061 | 2.75 |  |  | Cc1ccc(Nc2ccc([C@H]3CNCCO3)cc2)nn1 [Example 160, (6-Methyl-pyridazin-3-yl)-((S)-4-morpholin-2-yl-phenyl)-amine]
